Results reported in patent US8034572B2, “Receptor for GDNF family ligands” (priority 2006, dated 2011).

Columns and labels:
[1] = coinfusion into rat striatum; cited from earlier work
GDNF [2] = biological target: T1, GDNF (Homo sapiens, UniProt P39905); experiment: SPR: direct binding of heparin or desulfated heparins to GDNF cuvette; conditions: apparent Kd from equilibrium response, read-out: Kd1
T1 construct: purchased PeproTech, Ltd. or R&D Systems, Inc
T1 sequence (P39905 78-211 limits assumed): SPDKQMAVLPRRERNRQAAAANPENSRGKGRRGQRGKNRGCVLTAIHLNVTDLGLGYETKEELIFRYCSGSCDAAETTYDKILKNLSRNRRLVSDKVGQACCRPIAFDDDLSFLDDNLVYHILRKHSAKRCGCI
Protocol: (§1) Specifically desulfated heparins (Takano et al., 1998) were used to assess the involvement of different sulfate groups in the GDNF-heparin interaction by following direct binding to GDNF cuvette, or by competing out GDNF binding to the heparin-BSA cuvette. Dissociation constants were determined from direct binding using increasing GDNF concentrations and by fitting the data to R=(Rmax*C)/(Kd+C) for heparin. For desulfated heparins, the best fit was achieved using equation R=(Rmax1*C)/(Kd1+C)+(Rmax2*C)/(Kd2+C), where Kd1 and Kd2 are apparent dissociation constants derived for two heparin sites of different affinities with maximum equilibrium response Rmax1 and Rmax2, respectively.

GDNF [3] = biological target: T1, GDNF; experiment: SPR: competition of GDNF binding to heparin-BSA cuvette by heparin and desulfated heparins; conditions: competing out GDNF binding to heparin-BSA cuvette
Protocol: as §1

GDNF-syndecan-3 complex = biological target: T2, GDNF-syndecan-3 complex (UniProt P33671+P39905); experiment: Chemical cross-linking of ^125I-GDNF to C6 cells and immunoprecipitation with anti-syndecan-3; assay type: cell-based, rat; conditions: heparin 1 μg/ml; HB-GAM 150-fold molar excess; added with ^125I-GDNF
T2 construct: the rat glioma C6 cell line, which expresses syndecan-3; endogenous in cells; host or cells: rat glioma C6 cells (syndecan-3); GDNF purchased from PeproTech or R&D Systems and iodinated
Protocol: Glioma C6 cells were plated on 6-well plates and grown to 70% confluency. Cells were incubated with 1 nM ^125I-GDNF for 2 hours in binding buffer (Dulbecco's modified Eagle's medium, 0.2% BSA and 15 mM Hepes, pH 7.2) on ice. Unbound ligand was removed by washing three times with ice-cold PBS. The chemical cross-linker ethyl-dimethyl-aminopropyl-carbodimide (EDAC) supplemented with N-hydroxysuccinimide (NHS) (Sigma) was incubated with cells for 20 min at room temperature in PBS. The reaction was quenched with TBS for 15 min and cells were lysed in lysis buffer (TBS, 1% Triton X-100, 1% NP-40, 2 mM EDTA, 1 mM PMSF and Complete protease inhibitor mixture from Roche Molecular Biochemicals). Cell lysates were immunoprecipitated with anti-syndecan-3 antibodies (Nolo et al., 1995) and resolved on 7.5% SDS-PAGE. Autoradiography was performed with BAS1500 (Fuji). For heparinase III or PI-PLC treatment cells were incubated with 10 mU/ml heparinase III or with 1 U/ml PI-PLC, respectively for one hour at 37° C., 5% CO2 before ^125I-GDNF addition.

GDNF [4] = biological target: T1, GDNF; experiment: Scintillation proximity assay: tritium labeled heparin binding to and displacement from GDNF; conditions: FIG. 11
Excerpt: The scintillation proximity assay (SPA) technology (Amersham) was used to assay the ability of the low molecular weight molecule (namely low molecular weight heparin from Sigma) to displace tritium labeled heparin from GDNF.
Small beads filled with scintillation liquid are covalently linked with anti-mouse antibodies that can capture mouse anti-FLAG-tag antibodies. In turn, GDNF that we produced by ourselves has a FLAG-tag on its N-terminus. Thus, GDNF is in close proximity to the scintillation beads. The tritium labeled high molecular weight heparin (a kind gift from Ulf Lindahl, Sweden) is administered in the surrounding solution. Labeled heparin binds GDNF, which is sitting on scintillation beads and induces light that is detected. […] This assay can be easily adopted to high-throughput format.
To test the ability of small molecules to displace heparin or heparan sulfates from GDNF they are simply mixed at different concentrations with the labeled heparin and the decrease of the signal is monitored. It does positively correlate with the concentration of the cold heparin. We did it in our study with low molecular weight heparin and got IC50 of approximately 10 nM, which correlates with other binding data (FIG. 11).

T2 sequence (P33671 45-442, one chain of several): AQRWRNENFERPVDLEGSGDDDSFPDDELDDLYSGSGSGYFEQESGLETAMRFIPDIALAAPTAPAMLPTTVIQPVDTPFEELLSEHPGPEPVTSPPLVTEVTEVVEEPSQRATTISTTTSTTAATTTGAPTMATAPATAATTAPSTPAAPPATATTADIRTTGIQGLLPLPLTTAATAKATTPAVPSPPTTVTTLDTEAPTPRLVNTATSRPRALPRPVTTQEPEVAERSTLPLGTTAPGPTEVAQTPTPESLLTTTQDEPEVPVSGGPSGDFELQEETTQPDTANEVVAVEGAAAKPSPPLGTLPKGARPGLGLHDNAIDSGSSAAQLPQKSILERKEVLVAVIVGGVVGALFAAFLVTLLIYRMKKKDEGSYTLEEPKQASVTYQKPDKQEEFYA

Substance: heparin
- biodistribution of coinfused GDNF, NRTN or ARTN [1]: markedly increased their biodistribution
- Kd (GDNF [2]): 9.5 nM
- IC50 (GDNF [3]): 0.06 ng/mL
- effect on ^125I-GDNF binding to syndecan-3 on C6 cells (GDNF-syndecan-3 complex): abolished ^125I-GDNF binding to syndecan-3 almost completely

Substance: low molecular weight heparin
- IC50 (GDNF [4]): ~10 nM
